From US9486471B2, “Combination therapy for the treatment of cancer” (McMaster University, priority 2012, dated 2016)
Counter-ions that a name gives are not always drawn. Like-named read-outs stand apart in the source and are kept apart here.

Legend:
AML patient blast cells = test: Methylcellulose colony-forming assay, AML patient blast-CFU; format: cell-based, human
Description: (§1) AML/HPSC Cell Culture. AML cell lines, namely, OCI-AML2 (M4), OCI-AML3 (M4), HL-60 (M2) and MV-4-11(M5) were cultured in RPMI (Gibco) supplemented with 5% heated-inactivated FBS (HyClone). For DR agonist studies with R(+)-7-Hydroxy-DPAT hydrobromide (Sigma), serum-free conditions were employed instead due to the prevalence of dopamine in FBS (Little et al., 2002). AML patient blasts were cultured in IMDM supplemented with 5% heated inactivated FBS (HyClone), 5 ng/mL IL3 (R&D systems), 5×10^−5 M β-mercaptoethanol (Sigma) and BIT (StemCell Technologies). HSC media contained IMDM supplemented with 1% BSA (Sigma), 100 ng/mL SCF (R&D systems), 100 ng/mL Flt-3L (R&D systems) and 20 ng/mL TPO (R&D systems). Patient HSPC and AML samples were treated with compound or DMSO-vehicle (0.1%) for 24 h prior to CFU plating or xenotransplantation studies.
(§2) Methylcellulose Colony-Forming Assay. AML patient or CB lin− cells were cultured 24 hours in the presence of compound or DMSO-vehicle (0.1%) control. AML cells were plated at 50 000 cells/mL in Methocult GF H4434 (Stem Cell Technologies). CB lin− cells were plated at 1000 cells/mL in Methocult GF H4434 (Stem Cell Technologies). Colonies were scored after 14 days of culture using standard morphological criteria.

[1] = test system: v1H9-Oct4-GFP neoplastic hPSC; test: Chemical screening of neoplastic hPSC reporter line (GFP / Hoechst, loss of pluripotency); format: cell-based, human; settings: for activity at 10 µM: read-out: Hoechst % residual activity (% RA); for hit in extended screen (loss of pluripotency): 2446 compound screen, reduced mean GFP intensity and cell count
Description: In Vitro Culture Platform for Normal and Neoplastic hPSCs. Chemical screens involved v1H9-Oct4-GFP cells seeded at 5,000 cells per well in mouse embryonic fibroblast conditioned media (MEFCM) supplemented with 8 ng/ml bFGF. 24 hours later the media was exchanged for MEFCM with compounds at 10 μM and 0.1% DMSO, 0.1% DMSO (−BMP4) or 100 ng/ml of BMP4 and 0.1% DMSO (+BMP4) for 48 hours before being exchanged with fresh media with compound for a further 24 h (total compound treatment time 72 h) prior to being fixed and prepared for automated imaging and plate reader analysis. Confluent H9 & fibroblast-derived iPSC were seeded at 10,000 cells per well in MEFCM supplemented with 8 ng/ml bFGF. 24 hours later the cells were treated with compounds at 10 μM and 0.1% DMSO, 0.1% DMSO (−BMP4) or 100 ng/ml of BMP4 and 0.1% DMSO (+BMP4). Fresh MEFCM supplemented with compounds was exchanged daily for 5 days. On day 5, hPSC's were fixed and prepared for automated imaging and plate reader analysis. See supplementary experimental procedures for further details.
Imaging Neoplastic hPSC. Cells were fixed in 2% paraformaldehyde and stained with 10 μg/mL Hoechst 33342 (Invitrogen) with a Combi Multidrop Dispenser (Thermo). For experiments that involved Oct4 immunocytochemistry, a monoclonal antibody for Oct4 (BD) was used along with an Alexa-Fluor-647 secondary (Invitrogen). Immunocytochemical staining was performed by a Janus automated liquid handler (Perkin Elmer). Images were acquired at 10× N.A with an Arrayscan HCS VTI Reader (Cellomics) by means of epi-fluorescence illumination and standard filter sets.
Image Analysis. Image analysis was performed using custom scripts in Acapella software (Perkin Elmer). Nuclear objects were segmented from the Hoechst signal. For neoplastic cell lines, object intensity analysis was performed on GFP positive cells only. For normal cell lines, the fraction of Alexa-Fluor-647-positive cells was quantified. Images and well-level data were stored and analysed in a Columbus Database (Perkin Elmer) and further data analysis, compounds registration and hit identification in ActivityBase (IDBS).
These Collections have been previously scrutinized in numerous other mammalian cell lines (Diallo et al., 2010; Shoemaker, 2006).

[2] = test system: AML cell lines HL-60, OCI-AML2 and OCI-AML3
Description: All three lines are leukemic cell lines. HL-60 was derived from promyelocytic AML whereas MV 4-11 and OCI-AML3 are representative of AML. Each compound was incubated with the cells for 72 h. The control was DMSO (ie the vehicle used for the compound) for 72 h. Each condition had three replicates.
A series of dopamine receptor agonists, D3-antagonists, DR1 & 5-antagonists and multi-receptor antagonists were tested for cytotoxicity against three AML cell lines HL-60, OCI-AML2 and OCI-AML3. Testing was performed as set out in Example 1.

[3] = test system: neoplastic hPSCs (v1H9-Oct4-GFP); test: Flow cytometry of Oct4 in neoplastic hPSCs; format: cell-based, human
[4] = test system: AML LSCs (CD45+CD33+ blast engraftment); test: Xenotransplantation of compound-treated AML cells into NSG mice; format: in vivo; settings: 10 μM, 24 h ex vivo treatment
Description: Xenotransplantation Assays. NOD.Cg-Prkdc^scid II2rg^tm1Wjl/SzJ adult mice (NSG) were sub-lethally irradiated with 315 rads 24 hours prior transplantation. 0.8-1.0×10^7 AML MNCs or 1.5-1.8×10^5 CB lin-hematopoietic cells treated with compound or DMSO-vehicle for 24 h were injected via tail vein (IV). After 6-10 weeks, animals were culled, and the BM and spleen were analyzed for the presence of human cells by flow cytometry (LSRII, BD) and data was analyzed using FlowJo software (Tree Star Inc). For secondary HSPC transplants, equal number of engrafted human cells from CB lin− transplants were injected IV in adult irradiated NSG mice as described for primary transplants.
To delineate whether the inhibition of AML-blasts detected in vitro was due to the compounds affecting the neoplastic stem cell compartment, xenotransplantation studies (Dick, 2008) that functionally define LSCs and hematopoietic stem cells (HSCs) were conducted (FIG. 12).

[5] = test system: hematopoietic stem and progenitor cells (HSPC, CB lin-); test: Methylcellulose colony-forming assay, HSPC (CB lin-)
Description: as §1, §2

[6] = test system: p53 and p21 in neoplastic hPSCs; test: p53 and p21 accumulation in neoplastic hPSCs; format: cell-based, human; settings: 24 h; 10 μM etoposide, 10 μM thioridazine, BMP4
From the text: Antibodies. Antibodies used for immunocytochemistry were the following: Oct3/4 (BD Trunsduction Laboratories, cat#611203), Sox2 (R&D, cat#AF2018). To detect human hematopoietic cells, Pacific Blue-, PE-, APC- or FITC labeled anti-human CD45 was used (BD Biosciences). FITC anti-CD33, PE anti-CD13, FITC anti-CD41a, FITC anti-HLA DR, and PE anti-CD19 antibodies were obtained from BD Pharmingen. PE anti-CD14, PE anti-CD15 and PE anti-GlyA were acquired from Immunotech Beckman Coulter. To determine pluripotency, PE anti-SSEA3 (BD Biosciences) and PE- or AlexaFluor488 anti-Oct4 (BD Biosciences). Rabbit anti-human dopamine receptor antibodies; DRD1 (Cat#324390), DRD2 (Cat#324393), DRD3 (Cat#324402), DRD4 (Cat#324405) and DRD5 (Cat#324408) were sourced from EMD Chemical. Anti-rabbit Alexa-Fluor-488 (Molecular Probes) was used as the secondary antibody. Primary anti-p53 (Cat#2527) and anti-p21 (Cat#2947) rabbit IgG sourced from Cell Signaling Technology were used to stain fixed and permeabilized cells. Anti-rabbit alexa-Fluor-546 (Molecular Probes) was used as the secondary antibody.

[7] = test system: HL-60, MV4-11 and OCI-AML3 leukemic cell lines; test: Normalized cell number of leukemic cell lines after 72 h incubation (Examples 1, 3); format: cell-based, human; settings: 10 μM
Description: All three lines are leukemic cell lines. […] Each condition had three replicates.
The dopamine receptor antagonist and phenothiazine-related compound chlorpromazine was also investigated for effects on the AML cell lines HL-60, MV4-11 and OCI-AML3. Testing was performed as set out in Example 1.

[8] = test system: AML-OCI2 and AML-OCI3 cell lines; test: Volumetric cell counting of AML cell lines treated with DR antagonists and agonists; format: cell-based, human; settings: 72 h, serum-free conditions
Description: Volumetric Cell Counting. The number of AML-OCI2 and AML-OCI3 cells present after 72 h treatment with DR antagonists (FIG. 16b) and agonist (FIG. 16c-d) were counted by measuring the number of events within a fixed volume following the grating strategy defined by forward scatter and side scatter clustering, 7AAD− and Hoechst+.
Due to the bioavailability of dopamine in fetal bovine serum (FBS) (Little et al., 2002), serum-free conditions were employed to assess the role of DRs in AML.

[9] = Homo sapiens, 10 μM, 590 compound screen

With Nc1ccn([C@@H]2O[C@H](CO)[C@@H](O)[C@@H]2O)c(=O)n1 [AraC, Arabinofuranosyl Cytidine] the “effective concentration (ECArac)” value (AML patient blast cells; concentration that reduced AML-blast-CFU while retaining HSPC function, single drug) was 100 nM.

Work on Cn1cnc([N+](=O)[O-])c1Sc1ncnc2nc[nH]c12 [azathioprine] yielded an activity at 10 µM [1, 9] of over 30%.

With CN1CCN(C2=Nc3cc(Cl)ccc3Nc3ccccc32)CC1 [clozapine, Clozapine] the “cytotoxicity of AML cell lines” value [2] was “significant effect”.

With CN1CCN(CCCN2c3ccccc3Sc3ccc(Cl)cc32)CC1 [prochlorperazine] the “hit in extended screen (loss of pluripotency)” value [1] was “hits”.

CNC1CC(c2ccc(Cl)c(Cl)c2)c2ccccc21 (stereo not shown) [indatraline] gave an activity at 10 µM ([1]; Homo sapiens) of over 30%.

In the case of OC(c1cc(C(F)(F)F)nc2c(C(F)(F)F)cccc12)C1CCCCN1 (stereo not shown) [mefloquine], the cell number [3] is reported as “reductions”, the “levels of Oct4” value [3] is reported as “reductions” and the activity at 10 µM [1, 9] is reported as over 30%. The EC50 ([1]; Homo sapiens, dose response, v1H9-Oct4-GFP, read-out: EC50 (reduction in GFP intensity)) was under 10 µM, the “AML-blast CFU formation” value (AML patient blast cells; dose not stated in the sentence (0.1, 1, 10 μM tested)) was “reduced” and the “leukemic disease-initiating AML LSC capacity” value [4] was “ineffective”.

With CC[C@@H](C(=O)[C@@H](C)[C@@H](O)[C@H](C)[C@@H]1O[C@@H]([C@@H](CC)C(=O)O)CC[C@@H]1C)[C@H]1O[C@]2(C=C[C@@H](O)[C@]3(CC[C@@](C)([C@H]4CC[C@](O)(CC)[C@H](C)O4)O3)O2)[C@H](C)C[C@@H]1C [salinomycin] the “AML-blast CFU potential” value (AML patient blast cells; 1 μM) was “reduced”, the “AML-blast CFU potential” value (AML patient blast cells; 10 μM) was “reduced” and the “HSPC CFU potential” value [5] was “reduced”.

In the case of COc1cc([C@@H]2c3cc4c(cc3[C@@H](O[C@@H]3O[C@@H]5CO[C@@H](C)O[C@H]5[C@H](O)[C@H]3O)[C@H]3COC(=O)[C@H]23)OCO4)cc(OC)c1O [etoposide], the “accumulation of cell stress marker p53” value [6] is reported as “high levels” and the “accumulation of p21” value [6] is reported as “high levels”.

CN(C)CCCN1c2ccccc2Sc2ccc(Cl)cc21 [chlorpromazine, Chlorpromazine hydrochloride] was tested, and the “normalized cell number / toxicity” value [7] was “toxic”, the “number of AML cells” value [8] was “reduced the number of AML cells” and the “cytotoxicity of AML cell lines” value [2] was “significant effect”. For the same molecule, the cell count ([2]; 72 h, relative to control) was “eradicate the AML cell lines”.

For Oc1cc2c(cc1O)[C@@H](c1ccccc1)CNCC2 [SKF38393, (R)-(+)-SKF-38393 hydrochloride], the “number of AML cells” value [8] was “significant reduction”.

In the case of Br.CCCN(CCC)[C@@H]1CCc2ccc(O)cc2C1 [7OH-DPAT, R(+)-7-Hydroxy-DPAT hydrobromide], the “number of AML cells” value [8] is reported as “increased the number of AML cells”.

With OCCN1CCN(CCCN2c3ccccc3Sc3ccc(C(F)(F)F)cc32)CC1 [fluphenazine] the “hit in extended screen (loss of pluripotency)” value [1] was “hits”.

B1: BMP4: differentiation control, 100 ng/ml of BMP4 (protein, UniProt P12644 293-408, looked up)
Bone morphogenetic protein 4: SPKHHSQRARKKNKNCRRHSLYVDFSDVGWNDWIVAPPGYQAFYCHGDCPFPLADHLNSTNHAIVQTLVNSVNSSIPKACCVPTELSAISMLYLDEYDKVVLKNYQEMVVEGCGCR
B1 was tested, and the “accumulation of cell stress marker p53” value [6] was “no accumulation” and the “accumulation of p21” value [6] was “no accumulation”.
